The species entered for experiment [1] is Homo sapiens. The experiment can be described thus: Compound was evaluated for the inhibition of human LDL oxidation mediated by copper(II). The experiment is classed as functional.
Experiment [2] is filed under the species Homo sapiens. Description: (§1) Compound was evaluated for the inhibition of HUVEC-induced LDL oxidation. It is filed as functional, organism-based.
Experiment [3] relates to HUVEC. Described as §1. The following applies: Homo sapiens. It is filed as functional, cell-based.
Experiment [4] relates to HepG2. Description: In vitro inhibition of cholesterol synthesis in HepG2 cells. The following applies: Homo sapiens. It is filed as functional, cell-based.
The subject of experiment [5] is Rattus norvegicus. Description: Compound was evaluated in vivo for inhibition of cholesterol synthesis in rats upon oral administration. It is filed as functional.
For experiment [6], the target named is Squalene monooxygenase (Sus scrofa). The experiment can be described thus: Compound was evaluated for the inhibition of pig liver microsomal squalene epoxidase. On the technique in general: Liver microsomes are vesicles of endoplasmic reticulum, rich in cytochrome P450 enzymes.

Data on 10 compounds can be found in ChEMBL document CHEMBL1151556, “Design and synthesis of new hypocholesterolemic organosilanes with antioxidant properties” (Bioorg Med Chem Lett, 1996).

As to `CCN(C[Si](C)(C)c1ccccc1)c1ccc(C(F)(F)F)cc1`, in experiment [1] (Homo sapiens), inhibition was half-maximal at 100 µM (IC50).
Consider VITAMIN E, for which the IC50 (as a rule, the concentration at which inhibition is half-maximal) in experiment [2] came out at 13.6 µM; in experiment [1] it was 10 µM.
Regarding `CC(C)(Sc1cc(C(C)(C)C)c(O)c(C(C)(C)C)c1)Sc1cc(C(C)(C)C)c(O)c(C(C)(C)C)c1` [PROBUCOL], in experiment [1] (Homo sapiens), the IC50 was determined as 5.3 µM.
On the same count and under the same terms, next, `CCN(C[Si](C)(C)c1ccccc1)c1ccccc1`: 15 µM; `CCN(C[Si](C)(C)c1ccc(C(F)(F)F)cc1)c1ccccc1`: 20 µM.
On the same count and under the same terms, next, `COc1ccc(NC[Si](C)(C)c2ccccc2)cc1`: 3 µM; `C[Si](C)(CNc1ccccc1)c1ccccc1`: 7.8 µM; `CC(C)(CNc1ccccc1)c1ccccc1`: 100 µM.
On to `CCN(C/C=C/C#CC(C)(C)C)Cc1cccc(NC[Si](C)(C)c2ccccc2C)c1`, for which the IC50 in experiment [3] came to 7 µM; in experiment [1], 20 µM; in experiment [4] it was 0.2 µM. Also, in experiment [5], the ED50 (commonly the dose at which the effect has come halfway, by size or by number of responders) came to 10 mg/kg.
As to `CCN(C/C=C/C#CC(C)(C)C)Cc1cccc(OC[Si](C)(C)c2ccccc2C)c1`, the IC50 was 50 µM in experiment [3], more than 50 µM in experiment [1], 0.12 µM in experiment [4] and 0.03 µM in experiment [6]. In addition, it took a dose of 3.2 mg/kg to reach the 50% effect level in experiment [5] (ED50).
